Laboratory results: ChEMBL document CHEMBL5131515, “Identification of Pyridinyltriazine Derivatives as Potent panFGFR Inhibitors against Gatekeeper Mutants for Overcoming Drug Resistance” (J Med Chem, 2022)

Columns and labels:
[1] = Antiproliferative activity against mouse BaF3 cells assessed as cell growth inhibition by CellTiter-Glo assay
[2] = target: Fibroblast growth factor receptor 2 (Homo sapiens, UniProt P21802); experiment: Inhibition of wild-type FGFR2 (unknown origin) by radiometric kinase activity assay
Fibroblast growth factor receptor 2 (Homo sapiens, UniProt P21802), sequence (P21802 whole entry): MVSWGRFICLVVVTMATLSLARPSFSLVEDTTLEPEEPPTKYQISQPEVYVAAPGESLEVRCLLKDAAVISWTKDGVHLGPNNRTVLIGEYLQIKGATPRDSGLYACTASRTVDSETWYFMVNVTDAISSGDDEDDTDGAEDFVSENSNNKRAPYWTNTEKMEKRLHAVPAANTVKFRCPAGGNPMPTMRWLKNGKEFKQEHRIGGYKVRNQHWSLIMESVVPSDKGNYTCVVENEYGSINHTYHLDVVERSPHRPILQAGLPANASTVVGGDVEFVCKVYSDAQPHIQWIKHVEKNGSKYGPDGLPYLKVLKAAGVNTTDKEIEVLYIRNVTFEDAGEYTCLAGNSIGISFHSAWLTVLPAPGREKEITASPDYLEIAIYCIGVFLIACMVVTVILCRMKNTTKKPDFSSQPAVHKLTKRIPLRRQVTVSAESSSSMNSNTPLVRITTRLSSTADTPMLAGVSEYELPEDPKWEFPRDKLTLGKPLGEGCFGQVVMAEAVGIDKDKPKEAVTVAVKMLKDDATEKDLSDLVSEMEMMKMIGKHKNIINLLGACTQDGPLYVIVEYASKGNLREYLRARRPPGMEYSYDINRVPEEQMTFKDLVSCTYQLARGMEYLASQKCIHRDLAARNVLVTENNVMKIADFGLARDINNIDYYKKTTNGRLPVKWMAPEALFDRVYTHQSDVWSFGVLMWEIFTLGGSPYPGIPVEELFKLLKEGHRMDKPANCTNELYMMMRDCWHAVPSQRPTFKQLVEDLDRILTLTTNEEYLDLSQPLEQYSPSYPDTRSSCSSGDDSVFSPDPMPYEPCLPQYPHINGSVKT

[3] = target: Fibroblast growth factor receptor 3 (Homo sapiens, UniProt P22607, V555M)
Fibroblast growth factor receptor 3 (Homo sapiens, UniProt P22607, V555M), sequence (P22607 23-806 V555M limits assumed): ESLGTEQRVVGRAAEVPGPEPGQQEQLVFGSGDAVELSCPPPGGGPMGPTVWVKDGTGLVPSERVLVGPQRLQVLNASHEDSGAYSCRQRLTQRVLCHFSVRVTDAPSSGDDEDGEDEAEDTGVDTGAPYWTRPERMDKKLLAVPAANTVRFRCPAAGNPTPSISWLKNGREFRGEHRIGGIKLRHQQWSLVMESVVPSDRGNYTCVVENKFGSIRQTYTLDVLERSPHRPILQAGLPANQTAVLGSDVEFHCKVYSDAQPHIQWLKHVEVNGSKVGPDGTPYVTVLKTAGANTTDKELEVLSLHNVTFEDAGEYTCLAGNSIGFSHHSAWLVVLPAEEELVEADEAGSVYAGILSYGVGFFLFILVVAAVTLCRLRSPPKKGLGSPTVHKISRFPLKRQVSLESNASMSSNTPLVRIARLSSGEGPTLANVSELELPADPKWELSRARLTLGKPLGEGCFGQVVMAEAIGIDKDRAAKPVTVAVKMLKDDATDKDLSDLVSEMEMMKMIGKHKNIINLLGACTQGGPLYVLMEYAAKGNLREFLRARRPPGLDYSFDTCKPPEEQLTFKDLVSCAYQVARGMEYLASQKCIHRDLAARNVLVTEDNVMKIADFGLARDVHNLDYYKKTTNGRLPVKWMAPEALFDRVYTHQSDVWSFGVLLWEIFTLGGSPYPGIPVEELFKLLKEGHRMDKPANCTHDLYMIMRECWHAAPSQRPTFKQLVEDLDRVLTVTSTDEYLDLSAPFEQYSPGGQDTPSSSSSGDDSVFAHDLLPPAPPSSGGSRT

KMS-11 = experiment: Antiproliferative activity against human KMS-11 cells harboring FGFR3 Y373C mutant assessed as cell growth inhibition by CellTiter-Glo assay; type: functional
[4] = target: Fibroblast growth factor receptor 3 (Homo sapiens, UniProt P22607); experiment: Inhibition of wild-type FGFR3 (unknown origin) by radiometric kinase activity assay
Fibroblast growth factor receptor 3 (Homo sapiens, UniProt P22607), sequence (P22607 whole entry): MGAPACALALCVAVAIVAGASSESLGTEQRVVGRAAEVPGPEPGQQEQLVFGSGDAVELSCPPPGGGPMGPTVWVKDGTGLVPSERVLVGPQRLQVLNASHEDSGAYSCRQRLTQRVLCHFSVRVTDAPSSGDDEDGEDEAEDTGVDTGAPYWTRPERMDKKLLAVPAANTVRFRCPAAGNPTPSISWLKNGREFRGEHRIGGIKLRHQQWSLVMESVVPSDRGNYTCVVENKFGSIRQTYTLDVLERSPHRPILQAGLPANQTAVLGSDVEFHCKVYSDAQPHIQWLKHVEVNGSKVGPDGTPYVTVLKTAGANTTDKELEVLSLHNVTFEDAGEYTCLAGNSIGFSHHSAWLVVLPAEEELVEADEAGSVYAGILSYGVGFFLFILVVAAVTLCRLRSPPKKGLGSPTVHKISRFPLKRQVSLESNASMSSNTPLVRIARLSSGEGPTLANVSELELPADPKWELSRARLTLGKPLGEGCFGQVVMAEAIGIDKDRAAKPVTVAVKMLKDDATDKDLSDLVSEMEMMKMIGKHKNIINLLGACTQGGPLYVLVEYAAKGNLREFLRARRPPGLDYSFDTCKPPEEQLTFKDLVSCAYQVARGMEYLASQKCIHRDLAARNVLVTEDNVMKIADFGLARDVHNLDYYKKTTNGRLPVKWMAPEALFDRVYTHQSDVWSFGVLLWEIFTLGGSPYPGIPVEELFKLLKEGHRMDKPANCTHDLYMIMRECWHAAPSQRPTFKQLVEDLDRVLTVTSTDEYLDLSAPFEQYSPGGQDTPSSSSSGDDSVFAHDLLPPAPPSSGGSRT

BaF3 [5] = experiment: Antiproliferative activity against mouse BaF3 cells harboring TEL-FGFR3 assessed as cell growth inhibition by CellTiter-Glo assay; type: functional
J82 = experiment: Antiproliferative activity against human J82 cells harboring FGFR3 K652E mutant assessed as cell growth inhibition by CellTiter-Glo assay; type: functional
[6] = target: Fibroblast growth factor receptor 2 (Homo sapiens, UniProt P21802, V564F)
Fibroblast growth factor receptor 2 (Homo sapiens, UniProt P21802, V564F), sequence (P21802 22-821 V564F limits assumed): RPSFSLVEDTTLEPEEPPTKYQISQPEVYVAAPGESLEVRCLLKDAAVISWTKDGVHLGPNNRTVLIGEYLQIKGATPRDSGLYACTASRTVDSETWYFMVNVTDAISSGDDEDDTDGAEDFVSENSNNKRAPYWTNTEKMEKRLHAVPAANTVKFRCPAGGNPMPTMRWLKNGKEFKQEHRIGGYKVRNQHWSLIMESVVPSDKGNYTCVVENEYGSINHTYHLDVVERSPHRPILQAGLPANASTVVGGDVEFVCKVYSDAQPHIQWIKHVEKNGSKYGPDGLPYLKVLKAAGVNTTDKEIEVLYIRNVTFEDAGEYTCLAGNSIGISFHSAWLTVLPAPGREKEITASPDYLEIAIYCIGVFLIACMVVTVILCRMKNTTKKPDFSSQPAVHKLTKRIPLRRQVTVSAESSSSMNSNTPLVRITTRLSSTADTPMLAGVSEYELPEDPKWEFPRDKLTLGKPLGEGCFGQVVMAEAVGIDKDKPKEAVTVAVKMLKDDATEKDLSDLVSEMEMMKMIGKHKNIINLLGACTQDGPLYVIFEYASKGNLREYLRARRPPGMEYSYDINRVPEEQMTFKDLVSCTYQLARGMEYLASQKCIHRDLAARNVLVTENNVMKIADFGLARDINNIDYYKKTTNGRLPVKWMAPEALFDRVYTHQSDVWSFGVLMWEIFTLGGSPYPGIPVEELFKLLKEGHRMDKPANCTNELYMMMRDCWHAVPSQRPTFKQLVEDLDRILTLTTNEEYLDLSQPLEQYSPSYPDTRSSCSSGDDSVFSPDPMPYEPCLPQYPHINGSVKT
Description: Inhibition of FGFR2 V564F mutant (unknown origin) by radiometric kinase activity assay

BaF3 [7] = experiment: cells; type: functional; conditions: Mus musculus
AN3-CA = experiment: Antiproliferative activity against human AN3-CA cells harboring FGFR2 K310R/N549K mutant assessed as cell growth inhibition by CellTiter-Glo assay; type: functional
[8] = target: Fibroblast growth factor receptor 3 (Homo sapiens, UniProt P22607, K650M)
Fibroblast growth factor receptor 3 (Homo sapiens, UniProt P22607, K650M), sequence (P22607 23-806 K650M limits assumed): as the sequence (P22607 23-806 V555M limits assumed) above, with M533V, K628M counted along it

BaF3 [9] = experiment: Antiproliferative activity against mouse BaF3 cells harboring TEL-FGFR4 V550E mutant assessed as cell growth inhibition by CellTiter-Glo assay; type: functional
[10] = target: Fibroblast growth factor receptor 4 (Homo sapiens, UniProt P22455); experiment: Inhibition of wild-type FGFR4 (unknown origin) by radiometric kinase activity assay
Fibroblast growth factor receptor 4, sequence (P22455 whole entry): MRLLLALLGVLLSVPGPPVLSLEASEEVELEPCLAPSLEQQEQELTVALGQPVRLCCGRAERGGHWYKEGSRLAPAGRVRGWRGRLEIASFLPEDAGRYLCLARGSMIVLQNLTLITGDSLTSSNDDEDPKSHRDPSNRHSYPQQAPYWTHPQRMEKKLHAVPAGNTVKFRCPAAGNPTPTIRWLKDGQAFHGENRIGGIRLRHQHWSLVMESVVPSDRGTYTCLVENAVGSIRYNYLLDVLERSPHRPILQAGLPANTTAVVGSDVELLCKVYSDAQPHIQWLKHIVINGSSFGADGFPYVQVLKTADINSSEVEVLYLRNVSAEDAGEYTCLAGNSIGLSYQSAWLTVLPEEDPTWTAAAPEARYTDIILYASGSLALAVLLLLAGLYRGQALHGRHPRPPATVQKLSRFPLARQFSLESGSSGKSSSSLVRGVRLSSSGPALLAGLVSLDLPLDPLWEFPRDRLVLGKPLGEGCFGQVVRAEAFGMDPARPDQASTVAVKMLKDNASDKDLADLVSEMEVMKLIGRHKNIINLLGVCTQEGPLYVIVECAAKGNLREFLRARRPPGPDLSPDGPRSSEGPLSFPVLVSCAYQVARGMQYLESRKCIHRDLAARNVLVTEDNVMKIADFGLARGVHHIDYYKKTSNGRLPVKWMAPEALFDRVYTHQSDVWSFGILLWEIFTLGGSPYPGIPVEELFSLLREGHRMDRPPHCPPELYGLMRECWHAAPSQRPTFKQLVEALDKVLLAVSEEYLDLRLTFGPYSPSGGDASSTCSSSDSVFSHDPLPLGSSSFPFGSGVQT

[11] = target: Fibroblast growth factor receptor 2 (Homo sapiens, UniProt P21802, N549H)
Fibroblast growth factor receptor 2 (Homo sapiens, UniProt P21802, N549H), sequence (P21802 22-821 N549H limits assumed): as the sequence (P21802 22-821 V564F limits assumed) above, with N528H, F543V counted along it

BaF3 [12] = experiment: Antiproliferative activity against mouse BaF3 cells harboring TEL-FGFR4 N535K mutant assessed as cell growth inhibition by CellTiter-Glo assay; type: functional
[13] = target: Fibroblast growth factor receptor 3 (Homo sapiens, UniProt P22607, K650E)
Fibroblast growth factor receptor 3 (Homo sapiens, UniProt P22607, K650E), sequence (P22607 23-806 K650E limits assumed): as the sequence (P22607 23-806 V555M limits assumed) above, with M533V, K628E counted along it

[14] = test system: Fibroblast growth factor receptor 2 (Homo sapiens), P21802 [V564F]; experiment: Inhibition of FGFR2 V564F mutant (unknown origin) at 10 uM by radiometric kinase activity assay relative to control
Fibroblast growth factor receptor 2 (Homo sapiens), P21802 [V564F], sequence (P21802 whole entry V564F): as the sequence (P21802 whole entry) above, with V564F counted along it

[15] = test system: Fibroblast growth factor receptor 3 (Homo sapiens), P22607 [V555M]; experiment: Inhibition of FGFR3 V555M mutant (unknown origin) at 10 uM by radiometric kinase activity assay relative to control
Fibroblast growth factor receptor 3 (Homo sapiens), P22607 [V555M], sequence (P22607 whole entry V555M): as the sequence (P22607 whole entry) above, with V555M counted along it

Row | Compound | GI50 ([1]; BaF3 cells) | IC50 [2] | IC50 [3] | GI50 (KMS-11) | IC50 [4] | GI50 (BaF3 [5]) | GI50 (J82) | IC50 [6] | GI50 (BaF3 [7]) | GI50 (AN3-CA) | IC50 [8] | GI50 (BaF3 [9]) | IC50 [10] | IC50 [11] | GI50 (BaF3 [12]) | IC50 [13] | inhibition [14] | inhibition [15] | GI50 ([1]; baf3)
1 | CCN1CCN(c2cccc(Nc3ncnc(-c4cccnc4Nc4c(Cl)c(OC)cc(OC)c4Cl)n3)c2)CC1 | 3630 nM | < 0.5 nM | 134 nM | 190 nM | 0.58 nM | 18 nM | 1110 nM | 578 nM | 686 nM | 85 nM | 44.3 nM | 994 nM | 101 nM | 0.6 nM | 1690 nM | < 0.5 nM | – | – | –
2 | COc1cc(OC)c(Cl)c(Nc2ncccc2-c2ncnc(NCCN(C)C)n2)c1Cl | > 5000 nM | – | – | 3570 nM | 839 nM | 4040 nM | 11200 nM | – | > 5000 nM | 1940 nM | – | – | – | 368 nM | – | – | < 50% | < 50% | –
3 | C=CCn1cc(Nc2ncnc(-c3cccnc3Nc3c(Cl)c(OC)cc(OC)c3Cl)n2)cn1 | > 5000 nM | – | 1710 nM | 341 nM | 1.41 nM | 10 nM | 991 nM | 3090 nM | 1820 nM | 18800 nM | – | – | – | 26 nM | – | – | – | – | –
4 | COc1cc(OC)c(Cl)c(Nc2ncccc2-c2ncnc(N)n2)c1Cl | > 5000 nM | – | – | 3270 nM | 11.2 nM | 276 nM | 6560 nM | – | > 5000 nM | 753 nM | – | – | – | 31.4 nM | – | – | < 50% | < 50% | –
5 | COc1cc(OC)c(Cl)c(Nc2ncccc2-c2ncnc(Nc3ccc(N(C)C)cc3)n2)c1Cl | > 5000 nM | – | – | > 50000 nM | 15 nM | 164 nM | 14800 nM | – | > 5000 nM | 591 nM | – | – | – | 14.7 nM | – | – | < 50% | < 50% | –
6 | COc1cc(OC)c(Cl)c(Nc2ncccc2-c2ncnc(Nc3cnn(CCCN(C)C)c3)n2)c1Cl | 2730 nM | – | 319 nM | 189 nM | 1.19 nM | 5 nM | 510 nM | 1110 nM | 897 nM | 421 nM | – | – | – | 3.96 nM | – | – | – | – | –
7 | COc1cc(OC)c(Cl)c(Nc2ncccc2-c2ncnc(Nc3ccc(N4CCC(O)CC4)cc3)n2)c1Cl | > 5000 nM | – | 1810 nM | 1270 nM | 8.29 nM | 40 nM | 8250 nM | 2160 nM | 3880 nM | 117 nM | – | – | – | 6.05 nM | – | – | – | – | –
8 | COc1cc(OC)c(Cl)c(Nc2ncccc2-c2ncnc(Nc3ccc(N4CCN(C(C)=O)CC4)cc3)n2)c1Cl | > 5000 nM | – | 1120 nM | 1500 nM | 8.05 nM | 30 nM | 6010 nM | 3010 nM | 3020 nM | 63 nM | – | – | – | 4.49 nM | – | – | – | – | –
9 | CCN1C(=O)N(c2c(F)c(OC)cc(OC)c2F)Cc2cnc3[nH]c(CN4CCOCC4)cc3c21 [PEMIGATINIB] | > 5000 nM | – | – | 232 nM | – | 5 nM | 4290 nM | – | 2070 nM | 132 nM | – | > 5000 nM | – | – | 4500 nM | – | – | – | –
10 | COc1cc(OC)c(Cl)c(Nc2ncccc2-c2ncnc(Nc3cnn(C4CCOCC4)c3)n2)c1Cl | > 5000 nM | – | 1170 nM | 1380 nM | 2.51 nM | 5 nM | 6230 nM | 2770 nM | 3160 nM | 105 nM | – | – | – | 13.8 nM | – | – | – | – | –
11 | CCN1CCN(c2ccc(Nc3cc(-c4cccnc4Nc4c(Cl)c(OC)cc(OC)c4Cl)ncn3)cc2)CC1 | 3250 nM | 1.83 nM | 464 nM | 479 nM | 2.86 nM | 8 nM | 4290 nM | – | 2000 nM | 263 nM | – | 3200 nM | 50.3 nM | 6.06 nM | 3370 nM | 8.55 nM | – | – | –
12 | COc1cc(OC)c(Cl)c(Nc2ncccc2-c2ncnc(Nc3ccc(N4CCOCC4)nc3)n2)c1Cl | > 5000 nM | – | 4060 nM | 2020 nM | 8.62 nM | 664 nM | 11500 nM | – | > 5000 nM | 781 nM | – | – | – | 3.09 nM | – | – | < 50% | – | –
13 | COc1cc(OC)cc(N(CCNC(C)C)c2ccc3ncc(-c4cnn(C)c4)nc3c2)c1 [ERDAFITINIB] | – | – | – | 390 nM | – | 5 nM | 3800 nM | – | 761 nM | 48 nM | – | > 5000 nM | – | – | 4010 nM | – | – | – | > 5000 nM
14 | COc1cc(N2CCN(C)CC2)ccc1Nc1ncnc(-c2cccnc2Nc2c(Cl)c(OC)cc(OC)c2Cl)n1 | 2790 nM | – | 7750 nM | 730 nM | 20.3 nM | 282 nM | 7260 nM | 2640 nM | 2130 nM | 689 nM | – | – | – | 75.3 nM | – | – | – | – | –
15 | COc1cc(OC)c(Cl)c(Nc2ncccc2-c2ncnc(Nc3ccc(N4CCOCC4)cc3)n2)c1Cl | > 5000 nM | – | – | 12200 nM | 16 nM | 393 nM | 22400 nM | – | > 5000 nM | 1130 nM | – | – | – | 37.7 nM | – | – | < 50% | < 50% | –
16 | COc1cccc(Nc2ncnc(-c3cccnc3Nc3c(Cl)c(OC)cc(OC)c3Cl)n2)c1 | > 5000 nM | – | – | 895 nM | 9.81 nM | 30 nM | 4880 nM | – | > 5000 nM | 202 nM | – | – | – | 6.36 nM | – | – | < 50% | < 50% | –
17 | COc1cc(OC)c(Cl)c(Nc2ncccc2-c2ncnc(Nc3cnn(C)c3)n2)c1Cl | > 5000 nM | – | 163 nM | 315 nM | 2.41 nM | 5 nM | 2320 nM | 2840 nM | 731 nM | 31 nM | – | – | – | < 0.5 nM | – | – | – | – | –
18 | COc1cc(OC)c(Cl)c(Nc2ncccc2-c2ncnc(Nc3ccccc3)n2)c1Cl | > 5000 nM | – | – | 1420 nM | 4.58 nM | 16 nM | 3620 nM | – | > 5000 nM | 136 nM | – | – | – | 2.51 nM | – | – | < 50% | < 50% | –
19 | COc1cc(N2C[C@@H](C)N[C@@H](C)C2)ccc1Nc1ncnc(-c2cccnc2Nc2c(Cl)c(OC)cc(OC)c2Cl)n1 | 2730 nM | – | – | 872 nM | 23.9 nM | 286 nM | 3330 nM | 3560 nM | 2710 nM | 818 nM | – | – | – | 32.9 nM | – | – | – | < 50% | –
